Measured values taken from PubChem BioAssay AID212 (DTP/NCI, 2004).
Where “and” joins values, the source holds several entries; their conditions need not be identical. Identical values can stand only once. Inconclusive results are not listed.

Tested on: BDF1 mice, colon carcinoma 38 sc, T/C %
Assay: NCI In Vivo Anticancer Drug Screen. Data for tumor model Colon Carcinoma 38 (subcutaneous) in B6D2F1 (BDF1) mice
Conditions: endpoint: median tumor weight (est.), higher = larger tumour
In short: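 T/C readout: treated group (T) measurement over vehicle control group (C) measurement. Endpoint is survival or tumor size in mice bearing a transplanted tumor.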

[1] = dose: 3.12 mg/kg/injection, schedule: Q07DX002 (ip), vehicle: saline with Tween-80
[2] = dose: 12.5 mg/kg/injection, schedule: Q07DX002 (ip), vehicle: saline with Tween-80
[3] = dose: 25.0 mg/kg/injection, schedule: Q07DX002 (ip), vehicle: saline with Tween-80
[4] = dose: 50.0 mg/kg/injection, schedule: Q07DX002 (ip), vehicle: saline with Tween-80

For `Nc1ccc(Cn2ccc3c4c(N)nc(N)nc4ccc32)cc1`, the T/C (dose: 1.25 mg/kg/injection, schedule: Q07DX002 (ip), vehicle: saline with Tween-80) was 90 % of control, the T/C (dose: 2.5 mg/kg/injection, schedule: Q07DX002 (ip), vehicle: saline with Tween-80) was 93 % of control and 106 % of control and the T/C (dose: 40.0 mg/kg/injection, schedule: Q07DX002 (ip), vehicle: saline with Tween-80) was 59 % of control.

With `CC(C)(C)c1ccc(CN2CCN(C(c3ccccc3)c3ccc(Cl)cc3)CC2)cc1` (stereo not given) the T/C (dose: 8.0 mg/kg/injection, schedule: Q07DX002 (ip), vehicle: Klucel (hydroxypropylcellulose) (HPC)) was 92 % of control, the T/C (dose: 16.0 mg/kg/injection, schedule: Q07DX002 (ip), vehicle: Klucel (hydroxypropylcellulose) (HPC)) was 34 % of control and the T/C (dose: 32.0 mg/kg/injection, schedule: Q07DX002 (ip), vehicle: Klucel (hydroxypropylcellulose) (HPC)) was 82 % of control. The T/C (dose: 64.0 mg/kg/injection, schedule: Q07DX002 (ip), vehicle: Klucel (hydroxypropylcellulose) (HPC)) was 89 % of control and the T/C (dose: 256.0 mg/kg/injection, schedule: Q07DX002 (ip), vehicle: Klucel (hydroxypropylcellulose) (HPC)) was 87 % of control.

With `CCc1ccc(C2=C(O)C(=O)C(c3ccc(CC)cc3)=C(O)C2=O)cc1` the T/C [1] was 51 % of control, the T/C [2] was 124 % of control and the T/C [3] was 96 % of control. The T/C [4] was 81 % of control.

With `OC(CBr)C(O)C(O)C(O)CBr` (stereo not given) the T/C (dose: 25.0 mg/kg/injection, schedule: Q07DX002 (ip), vehicle: Klucel (hydroxypropylcellulose) (HPC)) was 56 % of control, the T/C (dose: 25.0 mg/kg/injection, schedule: Q07DX003 (ip), vehicle: saline with Tween-80) was 85 % of control and the T/C (dose: 50.0 mg/kg/injection, schedule: Q07DX002 (ip), vehicle: Klucel (hydroxypropylcellulose) (HPC)) was 103 % of control. The T/C (dose: 50.0 mg/kg/injection, schedule: Q07DX003 (ip), vehicle: Klucel (hydroxypropylcellulose) (HPC)) was 75 % of control, the T/C (dose: 100.0 mg/kg/injection, schedule: Q07DX003 (ip), vehicle: Klucel (hydroxypropylcellulose) (HPC)) was 122 % of control and the T/C (dose: 200.0 mg/kg/injection, schedule: Q07DX003 (ip), vehicle: Klucel (hydroxypropylcellulose) (HPC)) was 32 % of control. The T/C (dose: 200.0 mg/kg/injection, schedule: Q07DX003 (ip), vehicle: saline with Tween-80) was 123 % of control, the T/C (dose: 400.0 mg/kg/injection, schedule: Q07DX003 (ip), vehicle: Klucel (hydroxypropylcellulose) (HPC)) was 7 % of control and the T/C (dose: 400.0 mg/kg/injection, schedule: Q07DX003 (ip), vehicle: saline with Tween-80) was 105 % of control.

`O/N=C/c1ccccc1O.O/N=C/c1ccccc1O.[Cu]` was tested, and the T/C [1] was 89 % of control and 100 % of control, the T/C (dose: 6.25 mg/kg/injection, schedule: Q07DX002 (ip), vehicle: saline with Tween-80) was 92 % of control and 100 % of control and the T/C [2] was 102 % of control and 108 % of control. For the same molecule, the T/C [3] was 87 % of control and 104 % of control.

For `CC1(c2ccc(Cl)cc2)OC(=O)C(=Cc2ccc([N+](=O)[O-])s2)C(=O)O1` (stereo not given), the T/C [2] was 77 % of control, the T/C [3] was 63 % of control and the T/C [4] was 101 % of control. The T/C (dose: 100.0 mg/kg/injection, schedule: Q07DX002 (ip), vehicle: saline with Tween-80) was 100 % of control and the T/C (dose: 200.0 mg/kg/injection, schedule: Q07DX002 (ip), vehicle: saline with Tween-80) was 79 % of control.

In the case of `O=C1C=C2C(=CCOC2O)O1` (stereo not given), the T/C (dose: 0.75 mg/kg/injection, schedule: Q07DX002 (ip), vehicle: saline) is reported as 91 % of control, the T/C (dose: 1.0 mg/kg/injection, schedule: Q07DX002 (ip), vehicle: water) is reported as 98 % of control and the T/C (dose: 1.5 mg/kg/injection, schedule: Q07DX002 (ip), vehicle: saline) is reported as 72 % of control. For the same molecule, the T/C (dose: 2.0 mg/kg/injection, schedule: Q07DX002 (ip), vehicle: water) was 90 % of control and the T/C (dose: 4.0 mg/kg/injection, schedule: Q07DX002 (ip), vehicle: water) was 117 % of control.
